Experiments:
HepG-2 cells = assay: MTT cytotoxicity assay on HepG-2 cells; format: cell-based, human; details: Homo sapiens, HepG2; for viability at 1.25 µM: HepG-2, 1.25 µM; for viability at 1.25 µM / viability at 2.5 µM / viability at 5 µM / viability at 10 µM / viability at 20 µM / viability at 40 µM / viability at 80 µM / viability at 160 µM: Table S1; for viability at 2.5 µM: HepG-2, 2.5 µM; for viability at 5 µM: HepG-2, 5 µM; for viability at 10 µM: HepG-2, 10 µM; for viability at 20 µM: HepG-2, 20 µM; for viability at 40 µM: HepG-2, 40 µM; for viability at 80 µM: HepG-2, 80 µM; for viability at 160 µM: HepG-2, 160 µM; for IC50: MTT, 24 h treatment, mean of three experiments ± SEM
Method: (§1) Cytotoxic activity of the synthesized compounds was evaluated against HepG-2 and MCF-7 cancer cell lines using the MTT assay. The tested cell lines were obtained from the American Type Culture Collection (ATCC, […], USA) through the Tissue Culture Unit, The Egyptian Organization for Biological Products and Vaccines (Vacsera, Giza, Egypt). Indirubin, chemicals, and solvents were purchased from Sigma-Aldrich (St. Louis, MO, USA). The cells were grown on RPMI-1640 medium supplemented with 10% inactivated fetal calf serum and 50 µg/mL gentamycin. The cells were maintained at 37 °C in a humidified atmosphere with 5% CO2 and were sub-cultured two to three times per week. For antitumor assays, the tumor cell lines were suspended in the medium at concentration 5 × 10^4 cell/well in Corning® 96-well tissue culture plates (Corning, Corning, NY, USA), then incubated for 24 h. The tested molecules were then added to 96-well plates (six replicates) to achieve six concentrations for each compound. Six vehicle controls with media or 0.5% DMSO were run for each 96-well plate as a control. After incubating for 24 h, the numbers of viable cells were determined by the MTT test. Briefly, the media was removed from the 96 well plate and replaced with 100 µL of fresh culture RPMI 1640 medium without phenol red then 10 µL of the 12 mM MTT stock solution (5 mg of MTT in 1 mL of PBS) to each well including the untreated controls. The 96-well plates were then incubated at 37 °C and 5% CO2 for 4 h. An 85 µL aliquot of the media was removed from the wells, and 50 µL of DMSO was added to each well, mixed thoroughly with the pipette, and incubated at 37 °C for 10 min. Then, the optical density was measured at 590 nm with the microplate reader (SunRise, TECAN, Inc., Morrisville, NC, USA) to determine the number of viable cells, and the percentage of viability was calculated as […], where ODt is the mean optical density of wells treated with the tested sample and ODc is the mean optical density of untreated cells. The relation between surviving cells and drug concentration was plotted to obtain the survival curve of each tumor cell line after treatment with the specified compound. […] Each concentration was repeated four times.

MCF-7 cells = assay: MTT cytotoxicity assay on MCF-7 cells; format: cell-based; details: Homo sapiens, MCF7; for viability at 1.25 µM: MCF-7, 1.25 µM; for viability at 1.25 µM / viability at 2.5 µM / viability at 5 µM / viability at 10 µM / viability at 20 µM / viability at 40 µM / viability at 80 µM / viability at 160 µM: Table S2; for viability at 2.5 µM: MCF-7, 2.5 µM; for viability at 5 µM: MCF-7, 5 µM; for viability at 10 µM: MCF-7, 10 µM; for viability at 20 µM: MCF-7, 20 µM; for viability at 40 µM: MCF-7, 40 µM; for viability at 80 µM: MCF-7, 80 µM; for viability at 160 µM: MCF-7, 160 µM; for IC50: MTT, 24 h treatment, mean of three experiments ± SEM, read-out: IC50 (µM) MCF-7
Method: as §1

VEGFR-2 = target: T1, VEGFR-2 (Homo sapiens, UniProt P35968); assay: Kinase-Glo Plus luminescence kinase inhibition assay, VEGFR-2; format: biochemical; details: 10 µM ATP, 30 °C, 40 min; mean ± SEM
T1 construct: purchased BPS Bioscience 40301
T1 sequence (P35968 20-1356): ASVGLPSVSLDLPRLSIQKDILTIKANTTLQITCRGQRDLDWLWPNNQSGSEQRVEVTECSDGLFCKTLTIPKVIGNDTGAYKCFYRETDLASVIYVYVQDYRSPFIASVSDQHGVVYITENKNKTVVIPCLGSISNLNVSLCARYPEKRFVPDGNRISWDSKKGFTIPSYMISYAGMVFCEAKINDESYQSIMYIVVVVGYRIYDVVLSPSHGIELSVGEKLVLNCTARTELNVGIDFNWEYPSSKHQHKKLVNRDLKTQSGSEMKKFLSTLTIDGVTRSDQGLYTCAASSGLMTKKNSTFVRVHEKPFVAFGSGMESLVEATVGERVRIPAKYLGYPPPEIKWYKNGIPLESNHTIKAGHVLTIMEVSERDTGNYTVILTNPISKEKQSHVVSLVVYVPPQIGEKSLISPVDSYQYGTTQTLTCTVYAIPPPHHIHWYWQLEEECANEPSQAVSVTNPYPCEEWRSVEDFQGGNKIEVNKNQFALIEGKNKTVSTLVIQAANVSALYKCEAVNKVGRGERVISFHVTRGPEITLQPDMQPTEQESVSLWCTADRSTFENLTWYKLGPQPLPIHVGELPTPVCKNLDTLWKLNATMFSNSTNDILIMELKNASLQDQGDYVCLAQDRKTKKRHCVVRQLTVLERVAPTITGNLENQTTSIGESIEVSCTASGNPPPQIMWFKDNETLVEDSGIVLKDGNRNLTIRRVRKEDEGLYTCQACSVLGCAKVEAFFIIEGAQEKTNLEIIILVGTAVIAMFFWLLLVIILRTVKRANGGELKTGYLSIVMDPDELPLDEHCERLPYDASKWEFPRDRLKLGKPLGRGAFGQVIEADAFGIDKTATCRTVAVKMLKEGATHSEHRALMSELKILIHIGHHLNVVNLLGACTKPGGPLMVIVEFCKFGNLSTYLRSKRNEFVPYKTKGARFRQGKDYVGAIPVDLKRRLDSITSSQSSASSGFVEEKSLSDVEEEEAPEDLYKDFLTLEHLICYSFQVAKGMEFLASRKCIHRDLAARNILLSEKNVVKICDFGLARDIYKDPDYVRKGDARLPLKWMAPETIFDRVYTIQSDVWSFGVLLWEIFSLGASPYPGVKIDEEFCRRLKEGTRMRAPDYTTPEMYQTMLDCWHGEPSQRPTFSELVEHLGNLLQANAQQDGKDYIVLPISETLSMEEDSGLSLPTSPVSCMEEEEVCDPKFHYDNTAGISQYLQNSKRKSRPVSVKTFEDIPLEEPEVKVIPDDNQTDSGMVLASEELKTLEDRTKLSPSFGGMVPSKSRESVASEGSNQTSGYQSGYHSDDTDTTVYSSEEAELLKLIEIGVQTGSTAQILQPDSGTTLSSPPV
Method: (§2) The enzyme inhibition assay for the tested molecules was performed at BPS Bioscience Corporation, San Diego, CA, USA. The following materials served as the enzyme sources, Poly (Glu, Tyr) sodium salt (4:1, Glu:Tyr) (Sigma#P7244) served as the standardized substrate, and the Kinase-Glo Plus Luminescence kinase assay kit (Promega # V3772) was used. […] Glo Plus luminescence kinase assay kits. The assays were performed using Kinase-Glo Plus luminescence (Promega Corporation, Madison, WI, USA).
(§3) The tested molecules 9, 20, and indurbin were diluted to 100 µL in DMSO (10%), and 5 µL of the solution was added to a 50-µL enzyme reaction until the final concentration of DMSO was 1% in all of reactions. The enzymatic reactions were conducted at 30 °C for 40 min. The reaction mixture contained enzyme substrate and respective kinases. After the enzymatic reaction, 50 µL of enzyme-Glo Plus luminescence […] assay solution (Promega) was added to each reaction, and the plate was incubated for 5 min at room temperature. The luminescence signal was measured using a BioTek Synergy 2 microplate reader. The luminescence data were analyzed using the computer software GraphPad Prism. The difference between luminescence intensities in the absence of enzyme (Lut) and in the presence of enzyme (Luc) was defined as 100% activity (Lut − Luc). […] The IC50 value was determined using GraphPad Prism software. […]
(§4) Glo Plus luminescence kinase assay kits were used in these assays. […] The assay measures kinase activity by quantitating the amount of ATP remaining in the solution following kinase reaction. […] After the enzymatic reaction, 50 µL of Kinase-Glo Plus Luminescence kinase assay solution (Promega) was added to each reaction, and the plate was incubated for 5 min at room temperature. The luminescence signal was measured using a BioTek Synergy 2 microplate reader. […] The luminescence data were analyzed using the Graphpad Prism software.

EGFR = target: T2, EGFR (Homo sapiens, UniProt P00533); assay: Kinase-Glo Plus luminescence kinase inhibition assay, EGFR; format: biochemical; details: 10 µM ATP, 30 °C, 40 min; mean ± SEM
T2 construct: purchased BPS Bioscience 40721
T2 sequence (P00533 25-1210): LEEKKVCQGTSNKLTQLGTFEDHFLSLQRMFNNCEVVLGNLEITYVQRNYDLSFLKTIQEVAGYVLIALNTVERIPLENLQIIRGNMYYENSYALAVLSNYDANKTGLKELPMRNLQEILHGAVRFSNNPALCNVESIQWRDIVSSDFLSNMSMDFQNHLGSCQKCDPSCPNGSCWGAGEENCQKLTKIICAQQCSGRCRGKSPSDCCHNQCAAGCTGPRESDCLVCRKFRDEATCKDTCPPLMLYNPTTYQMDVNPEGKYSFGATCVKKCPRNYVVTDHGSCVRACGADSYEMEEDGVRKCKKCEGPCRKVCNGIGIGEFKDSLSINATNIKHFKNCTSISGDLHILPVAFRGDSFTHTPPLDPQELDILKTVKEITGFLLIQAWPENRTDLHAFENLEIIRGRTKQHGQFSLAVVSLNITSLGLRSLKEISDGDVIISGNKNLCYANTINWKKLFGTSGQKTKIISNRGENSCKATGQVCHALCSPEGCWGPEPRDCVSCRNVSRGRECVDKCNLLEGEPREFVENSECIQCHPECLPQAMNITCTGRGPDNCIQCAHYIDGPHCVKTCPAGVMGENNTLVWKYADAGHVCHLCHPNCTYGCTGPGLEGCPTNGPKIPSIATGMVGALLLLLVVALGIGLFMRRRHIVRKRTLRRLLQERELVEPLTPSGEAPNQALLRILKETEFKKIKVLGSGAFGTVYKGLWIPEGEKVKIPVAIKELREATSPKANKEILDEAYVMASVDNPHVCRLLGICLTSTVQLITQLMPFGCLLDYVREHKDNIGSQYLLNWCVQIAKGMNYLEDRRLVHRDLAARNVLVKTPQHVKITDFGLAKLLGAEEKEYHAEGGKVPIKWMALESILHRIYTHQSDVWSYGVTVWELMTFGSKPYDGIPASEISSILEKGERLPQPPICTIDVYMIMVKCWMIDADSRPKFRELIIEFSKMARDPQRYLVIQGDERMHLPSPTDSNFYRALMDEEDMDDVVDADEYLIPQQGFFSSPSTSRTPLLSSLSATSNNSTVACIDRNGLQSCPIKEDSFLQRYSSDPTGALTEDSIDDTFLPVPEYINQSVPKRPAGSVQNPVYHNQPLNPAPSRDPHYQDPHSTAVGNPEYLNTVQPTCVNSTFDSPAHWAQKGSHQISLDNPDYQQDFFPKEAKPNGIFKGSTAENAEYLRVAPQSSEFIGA
Method: as §2, §3, §4

CDK-2 = target: T3, CDK-2 (Homo sapiens, UniProt P24941); assay: Kinase-Glo Plus luminescence kinase inhibition assay, CDK-2; format: biochemical; details: 10 µM ATP, 30 °C, 40 min; mean ± SEM
T3 construct: purchased BPS Bioscience 41101
Method: as §2
The tested molecules 9, 20, and indurbin were diluted to 100 µL in DMSO (10%), and 5 µL of the solution was added to a 50-µL enzyme reaction until the final concentration of DMSO was 1% in all of reactions. The enzymatic reactions were conducted at 30 °C for 40 min. The reaction mixture contained enzyme substrate and respective kinases. After the enzymatic reaction, 50 µL of enzyme-Glo Plus luminescence […] assay solution (Promega) was added to each reaction, and the plate was incubated for 5 min at room temperature. The luminescence signal was measured using a BioTek Synergy 2 microplate reader. The luminescence data were analyzed using the computer software GraphPad Prism. The difference between luminescence intensities in the absence of enzyme (Lut) and in the presence of enzyme (Luc) was defined as 100% activity (Lut − Luc). The values of enzyme activity percentages versus five concentrations of the small molecule were then plotted using a non-linear regression analysis of the sigmoidal dose–response curve. The IC50 value was determined using GraphPad Prism software. All experiments were repeated three times (Table S3).
Glo Plus luminescence kinase assay kits were used in these assays. The assay was done at Bioscience Laboratory BPS, California, USA. The assay measures kinase activity by quantitating the amount of ATP remaining in the solution following kinase reaction. The luminescent signal from the assay was correlated with the amount of ATP present and inversely correlated with kinase activity. […] All of the enzymatic reactions were conducted at 30 °C for 40 min. The reaction mixture contained 40 mM Tris, pH 7.4, 10 mM MgCl2, 0.1 mg/mL BSA, 1 mM DTT, 10 µM ATP, Kinase substrate, and VEGFR-2, EFGR, CDK-2 and CDK-4 enzymes. After the enzymatic reaction, 50 µL of Kinase-Glo Plus Luminescence kinase assay solution (Promega) was added to each reaction, and the plate was incubated for 5 min at room temperature. The luminescence signal was measured using a BioTek Synergy 2 microplate reader. Kinase activity assays were performed in triplicate for each concentration. The luminescence data were analyzed using the Graphpad Prism software.

CDK-4 = target: T4, CDK-4 (Homo sapiens, UniProt P11802); assay: Kinase-Glo Plus luminescence kinase inhibition assay, CDK-4; format: biochemical; details: 10 µM ATP, 30 °C, 40 min; mean ± SEM
T4 construct: purchased BPS Bioscience 79674
T4 sequence (P11802 whole entry): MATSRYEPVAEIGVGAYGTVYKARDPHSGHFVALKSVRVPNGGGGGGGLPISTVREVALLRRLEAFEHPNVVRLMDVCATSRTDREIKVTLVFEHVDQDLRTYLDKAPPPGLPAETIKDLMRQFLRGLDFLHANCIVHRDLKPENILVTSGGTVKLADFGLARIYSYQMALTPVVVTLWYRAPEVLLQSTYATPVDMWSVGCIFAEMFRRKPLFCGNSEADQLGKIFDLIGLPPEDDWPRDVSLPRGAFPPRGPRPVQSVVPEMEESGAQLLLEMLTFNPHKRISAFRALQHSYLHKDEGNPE
T4 sequence (P30281 whole entry partner): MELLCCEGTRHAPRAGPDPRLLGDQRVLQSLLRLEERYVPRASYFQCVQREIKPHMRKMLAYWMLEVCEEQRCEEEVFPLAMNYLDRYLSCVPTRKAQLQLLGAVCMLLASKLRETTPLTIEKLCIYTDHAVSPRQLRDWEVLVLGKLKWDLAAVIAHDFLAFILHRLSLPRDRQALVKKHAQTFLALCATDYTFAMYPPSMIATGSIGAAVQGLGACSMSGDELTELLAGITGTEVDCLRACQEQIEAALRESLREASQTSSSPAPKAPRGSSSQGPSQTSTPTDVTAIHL
Method: as §2, §3, §4

HepG2 cells = test system: HepG2 cells; design: method as in PMID 34208562; details: relative to sunitinib; cited from earlier work

Row | Compound | viability at 1.25 µM (HepG-2 cells) [%] | viability at 2.5 µM (HepG-2 cells) [%] | viability at 5 µM (HepG-2 cells) [%] | viability at 10 µM (HepG-2 cells) [%] | viability at 20 µM (HepG-2 cells) [%] | viability at 40 µM (HepG-2 cells) [%] | viability at 80 µM (HepG-2 cells) [%] | viability at 160 µM (HepG-2 cells) [%] | IC50 (HepG-2 cells) [µM] | viability at 1.25 µM (MCF-7 cells) [%] | viability at 2.5 µM (MCF-7 cells) [%] | viability at 5 µM (MCF-7 cells) [%] | viability at 10 µM (MCF-7 cells) [%] | viability at 20 µM (MCF-7 cells) [%] | viability at 40 µM (MCF-7 cells) [%] | viability at 80 µM (MCF-7 cells) [%] | viability at 160 µM (MCF-7 cells) [%] | IC50 (MCF-7 cells) [µM] | also measured
1 | Cc1ccc2c(c1)C(=Nc1ccc(-c3nc4ccccc4c(=O)[nH]3)cc1)C(=O)N2 [Compound 23, 2-[4-(5-Methyl-2-oxo-1,2-dihydro-indol-3-ylideneamino)-phenyl]-3H-quinazolin-4-one] | 81.5 ± 7.5 | 75.3 ± 6.8 | 64.8 ± 6 | 50.2 ± 4.4 | 39.1 ± 3.6 | 28.7 ± 2.6 | 9.5 ± 0.6 | 4.5 ± 0.3 | 38.4 ± 2.71 | 101 ± 7.9 | 91.5 ± 6.5 | 78.8 ± 6.4 | 65.8 ± 5.6 | 40.9 ± 4.6 | 26.9 ± 3 | 12 ± 1.3 | 12 ± 1.6 | 15.3 ± 0.23 | –
2 | COc1ccc2c(c1)C(=Nc1ccc(-c3nc4ccccc4c(=O)[nH]3)cc1)C(=O)N2 [Compound 24, 2-[4-(5-Methoxy-2-oxo-1,2-dihydro-indol-3-ylideneamino)-phenyl]-3H-quinazolin-4-one] | 99.4 ± 8.2 | 95.5 ± 7.3 | 88.5 ± 7 | 79.6 ± 6.9 | 62.1 ± 5.7 | 49.5 ± 3.6 | 23.9 ± 2.4 | 10.4 ± 1.1 | 32.7 ± 2.93 | 104 ± 8.4 | 97.9 ± 7.7 | 90.8 ± 7 | 80 ± 6.9 | 61.3 ± 4.7 | 29.6 ± 2.6 | 11.1 ± 1.4 | 5.92 ± 0.5 | 18.5 ± 0.96 | –
3 | O=C1Nc2ccccc2/C1=C1/Nc2ccccc2C1=O [Ind, Indirubin, reference compound] | – | – | – | – | – | – | – | – | 6.92 ± 0.65 | – | – | – | – | – | – | – | – | 6.12 ± 0.35 | IC50 (VEGFR-2): 126 ± 20 nM; IC50 (EGFR): 175 ± 18.3 nM; IC50 (CDK-2): 45.6 ± 2.24 nM; IC50 (CDK-4): 23.6 ± 2.15 nM
4 | Cc1cc(C)c(/C=C2\C(=O)Nc3ccccc32)[nH]1 [Semaxanib] | – | – | – | – | – | – | – | – | – | – | – | – | – | – | – | – | – | – | fold more cytotoxic activity than sunitinib (HepG2 cells): 3 fold

Source: article PMC11901902, “Design, Synthesis, and Cytotoxicity Evaluation of Novel Indolin-2-One Based Molecules on Hepatocellular Carcinoma HepG2 Cells as Protein Kinase Inhibitors” (Molecules, 2025)
